From article PMC10920834, “Synthesis, anticancer activity, and molecular docking of half-sandwich iron(II) cyclopentadienyl complexes with maleimide and phosphine or phosphite ligands” (Scientific Reports, 2024)

What was measured:
Format in all cases: cell-based, human
HL-60 cells [1] = experiment: Alkaline comet assay, HL-60 cells; settings: 2 h incubation, 1-50 μM tested
Experimental: Selected iron(II) complexes were added to the suspension of the cells to give final concentrations of 1, 5, 10, 25 and 50 μM. HL-60 and A549 cells were incubated with the complexes for 2 h at 37 °C. The comet assay was performed under alkaline conditions according to the procedure of Tokarz et al.[45]. […] Next, the cells were lysed for 1 h at 4 °C in a buffer containing 2.5 M NaCl, 0.1 M EDTA, 10 mM Tris, 1% Triton X-100, pH 10. Following the lysis, the slides were placed in an electrophoresis unit. DNA was allowed to unwind for 20 min in the solution containing 300 mM NaOH and 1 mM EDTA, pH > 13. […] After separation, the slides were washed in water, drained, stained with 2 μg/ml DAPI and covered with cover slips. As a prevention from additional DNA damage, the procedure described above was conducted under limited light or in the dark. Each experiment included the positive control—cells incubated with H2O2 at 20 µM for 15 min on ice (data not shown).
The comets obtained after single cell gel electrophoresis were analysed in the following manner. […] Hundred images of singular comets were randomly selected from each sample and the mean value of DNA in comet tail was taken as an index of DNA damage (expressed in percent).

HL-60 cells [2] = experiment: Cell viability resazurin assay, HL-60 cells; settings: for viability of HL-60 cells relative to control: ± SD
Experimental: (§1) The A549 (human non-small cell lung cancer) cell line was obtained from the American Type Culture Collection (ATCC) and cultured in Dulbecco's Modified Eagle Medium (DMEM) with 10% fetal bovine serum (FBS), 2 mM L-Glutamine, 25 mM HEPES and penicillin/streptomycin solution (100 U/ml and 100 µg/ml, respectively). The HL-60 (human promyelocytic leukemia) cell line was also obtained from the American Type Culture Collection (ATCC) and cultured in Iscove’s Modified Dulbecco's Medium (IMDM) with 15% fetal bovine serum (FBS), 2 mM L-Glutamine, 25 mM HEPES and penicillin/streptomycin solution (100 U/ml and 100 µg/ml, respectively). Both cell lines were cultured in flasks at 37 °C in 5% CO2 and sub-cultured every 2–3 days to maintain exponential growth.
(§2) Firstly, resazurin salt powder was dissolved in sterile 1 × PBS. Cells were then seeded on the 96-well plates in the count of 1 × 10^4 in the case of HL-60 cells and of 5 × 10^4 for PBM cells and of 5 × 10^3 for A549 cells per well. A549 cells were seeded 24 h prior to treatment with the complexes to allow cell adherence to 96-well plate. Iron(II) complexes were added to wells to obtain final concentrations of 0.5, 1, 2.5, 5, 10, 25, 50, 100 and 250 μM. Subsequently, plates were incubated at 37 °C in 5% CO2 for 2 h and 24 h. After that 10 μl of resazurin salt was added to each well and plates again were incubated in 37 °C in 5% CO2 for 2 h. Finally, fluorescence was measured with microplate reader Synergy HT (Bio-Tek Instruments, USA) using an excitation wavelength of 530/25 and an emission wavelength of 590/35 nm. The effects of iron(II) complexes were calculated as the percentage of control fluorescence. IC50 (half maximal inhibitory concentration) values were calculated using a website algorithm (https://www.aatbio.com/tools/ic50-calculator). All assays were performed in octuplicate.

PBM cells = experiment: Cell viability resazurin assay, PBM cells; settings: for viability of PBM cells relative to control: ± SD
Description: Peripheral blood mononuclear (PBM) cells were isolated from a leukocyte-buffy coat collected from the blood of healthy, non-smoking donors at the Blood Bank in Lodz, Poland. The study protocol received approval from the Committee for Research on Human Subjects of the University of Lodz (17/KBBN-UŁ/III/2019). The initial step of isolation process involved mixing buffy coats with PBS in a 1:1 ratio. Subsequently, the mixture was centrifuged using a density gradient of Lymphosep (Cytogen, Zgierz, Poland) at 2200 RPM for 20 min, employing the lowest values for acceleration and deceleration. PBM cells were collected and washed three times by centrifugation with 1 × PBS. Following isolation, the cells were suspended in RPMI 1640 medium.
as §2

A549 cells = experiment: Cell viability resazurin assay, A549 cells; settings: for viability of A549 cells relative to control: ± SD
Experimental: as §1, §2

In the case of `CCOP(OCC)OCC.O=C1C=CC(=O)[N-]1.[C-]#[O+].[Fe+2].c1cc[cH-]c1` [3a], the “DNA damage in HL-60 cells (alkaline comet assay), in words” value (HL-60 cells [1]) is reported as “DNA damage at the concentrations of 10, 25 and 50 μM”, the “viability of HL-60 cells relative to control” value (HL-60 cells [2]; 2 h incubation, 0.5 µM) is reported as 103.48 ± 2.11% and the “viability of HL-60 cells relative to control” value (HL-60 cells [2]; 2 h incubation, 1 µM) is reported as 105.44 ± 1%. For the same compound, the “viability of HL-60 cells relative to control” value (HL-60 cells [2]; 2 h incubation, 2.5 µM) was 102.35 ± 0.54%, the “viability of HL-60 cells relative to control” value (HL-60 cells [2]; 2 h incubation, 5 µM) was 100.13 ± 1.86% and the “viability of HL-60 cells relative to control” value (HL-60 cells [2]; 2 h incubation, 10 µM) was 101.73 ± 3.47%. For the same compound, the “viability of HL-60 cells relative to control” value (HL-60 cells [2]; 2 h incubation, 25 µM) was 97.68 ± 2.4%, the “viability of HL-60 cells relative to control” value (HL-60 cells [2]; 2 h incubation, 50 µM) was 93.65 ± 1.73% and the “viability of HL-60 cells relative to control” value (HL-60 cells [2]; 2 h incubation, 100 µM) was 87.54 ± 2.53%. For the same compound, the “viability of HL-60 cells relative to control” value (HL-60 cells [2]; 2 h incubation, 250 µM) was 30.8 ± 1.55%, the IC50 (HL-60 cells [2]; 24 h incubation) was 15.9 µM and the “viability of HL-60 cells relative to control” value (HL-60 cells [2]; 24 h incubation, 0.5 µM) was 107.33 ± 1.24%. For the same compound, the “viability of HL-60 cells relative to control” value (HL-60 cells [2]; 24 h incubation, 1 µM) was 109.38 ± 4%, the “viability of HL-60 cells relative to control” value (HL-60 cells [2]; 24 h incubation, 2.5 µM) was 112.36 ± 1.5% and the “viability of HL-60 cells relative to control” value (HL-60 cells [2]; 24 h incubation, 5 µM) was 106.89 ± 3.43%. The “viability of HL-60 cells relative to control” value (HL-60 cells [2]; 24 h incubation, 10 µM) was 89 ± 3.39%, the “viability of HL-60 cells relative to control” value (HL-60 cells [2]; 24 h incubation, 25 µM) was 46.28 ± 0.82% and the “viability of HL-60 cells relative to control” value (HL-60 cells [2]; 24 h incubation, 50 µM) was 38.62 ± 0.52%. For the same compound, the “viability of HL-60 cells relative to control” value (HL-60 cells [2]; 24 h incubation, 100 µM) was 39.69 ± 0.83%, the “viability of HL-60 cells relative to control” value (HL-60 cells [2]; 24 h incubation, 250 µM) was 17.5 ± 0.5% and the “viability of PBM cells relative to control” value (PBM cells; 2 h incubation, 0.5 µM) was 83.62 ± 1.79%. For the same compound, the “viability of PBM cells relative to control” value (PBM cells; 2 h incubation, 1 µM) was 82.59 ± 3.38%, the “viability of PBM cells relative to control” value (PBM cells; 2 h incubation, 2.5 µM) was 83.52 ± 1.8% and the “viability of PBM cells relative to control” value (PBM cells; 2 h incubation, 5 µM) was 86.67 ± 4.18%. For the same compound, the “viability of PBM cells relative to control” value (PBM cells; 2 h incubation, 10 µM) was 89.89 ± 2.91%, the “viability of PBM cells relative to control” value (PBM cells; 2 h incubation, 25 µM) was 98.19 ± 4.2% and the “viability of PBM cells relative to control” value (PBM cells; 2 h incubation, 50 µM) was 98.5 ± 3.37%. The “viability of PBM cells relative to control” value (PBM cells; 2 h incubation, 100 µM) was 97.79 ± 4.89%, the “viability of PBM cells relative to control” value (PBM cells; 2 h incubation, 250 µM) was 98.17 ± 2.87% and the IC50 (PBM cells; 24 h incubation) was > 250 µM. The “viability of PBM cells relative to control” value (PBM cells; 24 h incubation, 0.5 µM) was 102.49 ± 0.39%, the “viability of PBM cells relative to control” value (PBM cells; 24 h incubation, 1 µM) was 104.14 ± 1.97% and the “viability of PBM cells relative to control” value (PBM cells; 24 h incubation, 2.5 µM) was 104.31 ± 0.56%. For the same compound, the “viability of PBM cells relative to control” value (PBM cells; 24 h incubation, 5 µM) was 102.43 ± 1.43%, the “viability of PBM cells relative to control” value (PBM cells; 24 h incubation, 10 µM) was 99.21 ± 0.78% and the “viability of PBM cells relative to control” value (PBM cells; 24 h incubation, 25 µM) was 98.34 ± 0.97%. For the same compound, the “viability of PBM cells relative to control” value (PBM cells; 24 h incubation, 50 µM) was 98.58 ± 2.84%, the “viability of PBM cells relative to control” value (PBM cells; 24 h incubation, 100 µM) was 102.37 ± 3.3% and the “viability of PBM cells relative to control” value (PBM cells; 24 h incubation, 250 µM) was 94.72 ± 3.88%. The “viability of A549 cells relative to control” value (A549 cells; 2 h incubation, 0.5 µM) was 100.11 ± 13.46%, the “viability of A549 cells relative to control” value (A549 cells; 2 h incubation, 1 µM) was 89.02 ± 8.33% and the “viability of A549 cells relative to control” value (A549 cells; 2 h incubation, 2.5 µM) was 86.36 ± 7.43%. The “viability of A549 cells relative to control” value (A549 cells; 2 h incubation, 5 µM) was 85.49 ± 7.39%, the “viability of A549 cells relative to control” value (A549 cells; 2 h incubation, 10 µM) was 83.61 ± 12.73% and the “viability of A549 cells relative to control” value (A549 cells; 2 h incubation, 25 µM) was 82.29 ± 5.9%. The “viability of A549 cells relative to control” value (A549 cells; 2 h incubation, 50 µM) was 82.69 ± 3.89%, the “viability of A549 cells relative to control” value (A549 cells; 2 h incubation, 100 µM) was 74.97 ± 6.81% and the “viability of A549 cells relative to control” value (A549 cells; 2 h incubation, 250 µM) was 68.50 ± 8.56%. For the same compound, the IC50 (A549 cells; 24 h incubation) was > 250 µM, the “cytotoxicity against A549 cells, in words” value (A549 cells; 24 h incubation) was “did not show cytotoxicity” and the “viability of A549 cells relative to control” value (A549 cells; 24 h incubation, 0.5 µM) was 80.91 ± 12.58%. For the same compound, the “viability of A549 cells relative to control” value (A549 cells; 24 h incubation, 1 µM) was 70.97 ± 10.92%, the “viability of A549 cells relative to control” value (A549 cells; 24 h incubation, 2.5 µM) was 68.70 ± 18.12% and the “viability of A549 cells relative to control” value (A549 cells; 24 h incubation, 5 µM) was 68.55 ± 13.94%. The “viability of A549 cells relative to control” value (A549 cells; 24 h incubation, 10 µM) was 71.63 ± 17.67%, the “viability of A549 cells relative to control” value (A549 cells; 24 h incubation, 25 µM) was 131.92 ± 19.26% and the “viability of A549 cells relative to control” value (A549 cells; 24 h incubation, 50 µM) was 131.87 ± 25.64%. For the same compound, the “viability of A549 cells relative to control” value (A549 cells; 24 h incubation, 100 µM) was 153.54 ± 19.26%, the “viability of A549 cells relative to control” value (A549 cells; 24 h incubation, 250 µM) was 95.62 ± 13.21% and the “A549 cell viability, increase with increasing concentrations to” value (A549 cells; 24 h incubation, concentration not given) was 153%.
